Common to all, as to format: functional, cell-based
The target of test [1] is T1, Taste receptor type 2 member 7 (Homo sapiens) (UniProt Q9NYW3).
T1 sequence (whole entry): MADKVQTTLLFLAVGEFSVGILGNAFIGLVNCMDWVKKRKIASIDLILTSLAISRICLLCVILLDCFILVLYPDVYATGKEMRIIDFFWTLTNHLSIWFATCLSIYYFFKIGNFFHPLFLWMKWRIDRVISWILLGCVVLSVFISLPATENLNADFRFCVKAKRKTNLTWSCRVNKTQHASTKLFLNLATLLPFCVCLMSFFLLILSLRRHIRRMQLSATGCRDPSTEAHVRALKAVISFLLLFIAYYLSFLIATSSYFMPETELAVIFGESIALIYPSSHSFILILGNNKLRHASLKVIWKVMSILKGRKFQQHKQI
The test is described as follows: Antagonist activity at recombinant human N-terminal rat ST3 receptor-fused TAS2R7 expressed in HEK293T cells co-expressing Galpha16gust44 assessed as inhibition of quinine sulfate-induced increase in intracellular calcium level at 100 uM by FLIPR assay. For orientation: Calcium flux is commonly read through the fluorescence of an indicator in the cells.

In test [2] the target is T2, Taste receptor type 2 member 1 (Homo sapiens) (UniProt Q9NYW7).
T2 sequence (whole entry): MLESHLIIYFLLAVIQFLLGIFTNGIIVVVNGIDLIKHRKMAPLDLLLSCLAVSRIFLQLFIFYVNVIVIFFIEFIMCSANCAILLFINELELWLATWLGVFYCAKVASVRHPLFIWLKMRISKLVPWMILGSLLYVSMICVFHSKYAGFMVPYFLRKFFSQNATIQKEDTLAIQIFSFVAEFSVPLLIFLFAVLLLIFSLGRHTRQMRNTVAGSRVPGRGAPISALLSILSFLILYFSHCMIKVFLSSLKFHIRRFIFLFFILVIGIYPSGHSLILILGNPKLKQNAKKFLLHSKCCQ
Put plainly: Agonist activity at recombinant human N-terminal rat ST3 receptor-fused TAS2R1 expressed in HEK293T cells co-expressing Galpha16gust44 assessed as increase in intracellular calcium level at 100 uM by FLIPR assay.

Test [3] has as its target T3, Taste receptor type 2 member 8 (Homo sapiens) (UniProt Q9NYW2).
T3 sequence (whole entry): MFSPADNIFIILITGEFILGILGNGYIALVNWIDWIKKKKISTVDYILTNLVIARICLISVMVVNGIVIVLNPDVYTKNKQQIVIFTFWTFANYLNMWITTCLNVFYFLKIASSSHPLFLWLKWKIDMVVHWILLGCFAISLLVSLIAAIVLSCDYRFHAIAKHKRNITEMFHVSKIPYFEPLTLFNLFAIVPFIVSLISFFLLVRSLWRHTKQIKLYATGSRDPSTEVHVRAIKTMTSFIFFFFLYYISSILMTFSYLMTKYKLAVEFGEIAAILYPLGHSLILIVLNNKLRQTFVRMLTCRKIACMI
Put plainly: Agonist activity at recombinant human N-terminal rat ST3 receptor-fused TAS2R8 expressed in HEK293T cells co-expressing Galpha16gust44 assessed as increase in intracellular calcium level at 100 uM by FLIPR assay.

Test [4] concerns the target T4, Taste receptor type 2 member 3 (Homo sapiens) (UniProt Q9NYW6).
T4 sequence (whole entry): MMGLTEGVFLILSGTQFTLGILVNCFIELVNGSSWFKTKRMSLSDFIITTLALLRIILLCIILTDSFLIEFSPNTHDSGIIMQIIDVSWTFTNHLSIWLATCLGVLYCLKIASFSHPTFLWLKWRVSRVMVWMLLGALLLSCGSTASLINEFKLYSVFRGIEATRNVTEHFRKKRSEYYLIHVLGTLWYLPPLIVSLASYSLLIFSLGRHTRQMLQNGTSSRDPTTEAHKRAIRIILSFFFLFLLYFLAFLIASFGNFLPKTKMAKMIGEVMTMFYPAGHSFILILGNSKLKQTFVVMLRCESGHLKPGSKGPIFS
Put plainly: Agonist activity at recombinant human N-terminal rat ST3 receptor-fused TAS2R3 expressed in HEK293T cells co-expressing Galpha16gust44 assessed as increase in intracellular calcium level at 100 uM by FLIPR assay.

Test [5] addresses T5, Taste receptor type 2 member 16 (Homo sapiens) (UniProt Q9NYV7).
T5 sequence (whole entry): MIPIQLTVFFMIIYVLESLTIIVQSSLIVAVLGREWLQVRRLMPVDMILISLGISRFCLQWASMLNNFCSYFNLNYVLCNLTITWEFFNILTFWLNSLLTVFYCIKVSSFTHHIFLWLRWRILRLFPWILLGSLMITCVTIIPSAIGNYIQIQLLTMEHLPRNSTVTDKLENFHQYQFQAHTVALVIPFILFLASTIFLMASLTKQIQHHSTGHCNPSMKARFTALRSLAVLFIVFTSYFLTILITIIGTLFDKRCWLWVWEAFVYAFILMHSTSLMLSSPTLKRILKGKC
Put plainly: Agonist activity at recombinant human N-terminal rat ST3 receptor-fused TAS2R16 expressed in HEK293T cells co-expressing Galpha16gust44 assessed as increase in intracellular calcium level at 100 uM by FLIPR assay.

The target of test [6] is Taste receptor type 2 member 40 (Homo sapiens) (UniProt P59535). The test is described as follows: Agonist activity at recombinant human N-terminal rat ST3 receptor-fused TAS2R40 expressed in HEK293T cells co-expressing Galpha16gust44 assessed as increase in intracellular calcium level at 100 uM by FLIPR assay.
Sequence of Taste receptor type 2 member 40 (Homo sapiens) (P59535 whole entry, the tested form may be a part): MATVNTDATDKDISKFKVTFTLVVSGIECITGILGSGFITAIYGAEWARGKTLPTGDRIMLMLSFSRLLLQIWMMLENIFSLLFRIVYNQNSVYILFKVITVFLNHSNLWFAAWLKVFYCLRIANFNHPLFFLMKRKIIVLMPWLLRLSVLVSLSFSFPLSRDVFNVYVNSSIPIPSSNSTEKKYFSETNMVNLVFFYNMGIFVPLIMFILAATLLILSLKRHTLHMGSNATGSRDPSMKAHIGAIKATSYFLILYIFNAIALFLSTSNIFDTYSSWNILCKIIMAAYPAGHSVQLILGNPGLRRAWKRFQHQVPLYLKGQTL
The target of test [7] is T6, Taste receptor type 2 member 43 (Homo sapiens) (UniProt P59537).
T6 sequence (whole entry): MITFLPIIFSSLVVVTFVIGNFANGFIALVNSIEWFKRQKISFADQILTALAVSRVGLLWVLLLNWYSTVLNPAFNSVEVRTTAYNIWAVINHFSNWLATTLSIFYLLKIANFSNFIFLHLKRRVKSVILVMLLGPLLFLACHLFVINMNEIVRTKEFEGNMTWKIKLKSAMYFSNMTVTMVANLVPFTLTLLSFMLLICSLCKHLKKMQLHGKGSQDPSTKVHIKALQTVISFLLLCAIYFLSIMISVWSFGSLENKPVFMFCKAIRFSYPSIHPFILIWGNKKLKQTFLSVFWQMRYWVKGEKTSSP
Put plainly: Agonist activity at recombinant human N-terminal rat ST3 receptor-fused TAS2R43 expressed in HEK293T cells co-expressing Galpha16gust44 assessed as increase in intracellular calcium level at 100 uM by FLIPR assay.

Test [8] concerns the target Taste receptor type 2 member 45 (Homo sapiens) (UniProt P59539). The test is described as follows: Agonist activity at recombinant human N-terminal rat ST3 receptor-fused TAS2R45 expressed in HEK293T cells co-expressing Galpha16gust44 assessed as increase in intracellular calcium level at 100 uM by FLIPR assay.
For test [9], the target named is T1, Taste receptor type 2 member 7 (Homo sapiens). Put plainly: Potentiation of quinine sulfate-induced agonist activity at recombinant human N-terminal rat ST3 receptor-fused TAS2R7 expressed in HEK293T cells co-expressing Galpha16gust44 assessed as increase in intracellular calcium level at 100 uM by FLIPR assay.

SMILES strings stand for the structures. Calls of active or inactive are those of the source. No cut-off for these calls is given here.

Sequence of Taste receptor type 2 member 45 (Homo sapiens) (P59539 whole entry, the tested form may be a part): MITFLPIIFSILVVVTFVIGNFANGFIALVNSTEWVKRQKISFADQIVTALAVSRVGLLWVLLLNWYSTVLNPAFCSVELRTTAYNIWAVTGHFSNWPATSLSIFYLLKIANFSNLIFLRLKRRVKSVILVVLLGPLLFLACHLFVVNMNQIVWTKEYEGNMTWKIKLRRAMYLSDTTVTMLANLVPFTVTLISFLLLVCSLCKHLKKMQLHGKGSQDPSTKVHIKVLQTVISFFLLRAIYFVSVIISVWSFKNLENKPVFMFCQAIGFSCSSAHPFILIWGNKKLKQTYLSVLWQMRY

Take `C/C1=C\C[C@H](O)[C@@H](C)C[C@H]2OC(=O)[C@@H](C)[C@@H]2CC1`: the inhibition entry in test [1] was “inactive”.
With `C/C1=C\C[C@H](O)/C(C)=C/[C@H]2OC(=O)[C@@H](C)[C@@H]2CC1`, the result in test [2], in test [3] and in test [9] was Active. Further, the result in test [4], in test [5], in test [6], in test [7] and in test [8] was inactive.

The record behind these values is ChEMBL document CHEMBL4418912, “Methods of identifying antagonists of the hTAS2R46 bitter taste receptor” (2014).
